Measured values: patent publication US8283353B2, “Fused ring compound and use thereof” (Takeda Pharmaceutical Company Limited, priority 2009, dated 2012)

Tests used:
human PPARγ = molecular target: T1, human PPARγ (Homo sapiens, UniProt P37231); assay: PPARγ agonistic activity: luciferase reporter assay in PPARγ:RXRα:4ERPP/CHO-K1 cells; assay type: cell-based; details: CHO-K1, test compound 10^−6 M; luciferase activity of control compound X (1 μM) = 100%, non-administration group = 0%
T1 construct: expressed in transfected cells
T1 sequence (P37231 1-477 isoform P37231-2): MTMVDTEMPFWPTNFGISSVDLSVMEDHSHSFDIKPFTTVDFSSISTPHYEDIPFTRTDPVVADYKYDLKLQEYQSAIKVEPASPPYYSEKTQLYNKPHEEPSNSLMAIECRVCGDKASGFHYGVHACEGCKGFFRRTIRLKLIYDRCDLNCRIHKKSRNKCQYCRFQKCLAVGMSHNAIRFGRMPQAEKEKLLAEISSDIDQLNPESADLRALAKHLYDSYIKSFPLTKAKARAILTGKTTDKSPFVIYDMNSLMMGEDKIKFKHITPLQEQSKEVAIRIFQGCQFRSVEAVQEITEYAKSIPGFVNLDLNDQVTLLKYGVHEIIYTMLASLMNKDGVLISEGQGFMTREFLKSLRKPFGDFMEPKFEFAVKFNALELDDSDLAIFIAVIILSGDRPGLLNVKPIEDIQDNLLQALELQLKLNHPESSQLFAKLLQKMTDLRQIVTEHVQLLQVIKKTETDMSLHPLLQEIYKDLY
T1 sequence (P19793 1-462 partner): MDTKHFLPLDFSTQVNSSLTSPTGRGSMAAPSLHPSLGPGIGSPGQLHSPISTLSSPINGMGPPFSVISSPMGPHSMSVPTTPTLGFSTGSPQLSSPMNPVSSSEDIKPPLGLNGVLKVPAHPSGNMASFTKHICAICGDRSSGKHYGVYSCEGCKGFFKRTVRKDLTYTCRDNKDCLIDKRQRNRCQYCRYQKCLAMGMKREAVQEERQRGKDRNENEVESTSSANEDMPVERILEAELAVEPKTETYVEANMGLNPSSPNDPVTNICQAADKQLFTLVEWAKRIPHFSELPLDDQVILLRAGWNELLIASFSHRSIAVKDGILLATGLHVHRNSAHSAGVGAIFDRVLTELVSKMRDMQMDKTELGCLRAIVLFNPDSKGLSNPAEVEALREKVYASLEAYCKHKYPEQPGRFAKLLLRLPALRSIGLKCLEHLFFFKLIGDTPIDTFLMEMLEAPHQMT
Method in brief: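 Activity is expressed relative to untreated cells (0%) and 1 μM reference compound X (100%), from luciferase luminescence. Reporter line: PPARγ:RXRα:4ERPP/CHO-K1, exposed to compound for one day at 37 °C in F12 medium containing 0.1% fatty-acid-free BSA.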

human AT1 receptor = molecular target: T2, human AT1 receptor (Homo sapiens, UniProt P30556); assay: AT1 receptor antagonistic activity: [125I]-angiotensin II binding assay on human AT1 receptor-expressing CHO-K1 cellular membrane fraction; details: 22.5 pM [125I]-angiotensin II, 1 hr room temperature
T2 construct: expressed in transfected cells; membrane fraction
T2 sequence (P30556 1-359): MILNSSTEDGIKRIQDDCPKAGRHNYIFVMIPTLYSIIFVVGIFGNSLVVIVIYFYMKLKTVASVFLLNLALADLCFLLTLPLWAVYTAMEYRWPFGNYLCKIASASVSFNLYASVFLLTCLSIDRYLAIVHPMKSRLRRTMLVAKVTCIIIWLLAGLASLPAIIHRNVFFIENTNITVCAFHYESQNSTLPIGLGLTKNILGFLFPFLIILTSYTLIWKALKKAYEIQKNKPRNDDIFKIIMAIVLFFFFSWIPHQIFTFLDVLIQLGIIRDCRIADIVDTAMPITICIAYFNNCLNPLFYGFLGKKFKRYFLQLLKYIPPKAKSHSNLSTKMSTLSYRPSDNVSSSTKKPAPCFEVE
Method in brief: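 Competition binding used radiolabelled angiotensin II on stably transfected CHO-K1 membrane fractions in Tris pH 7.4/MgCl2 buffer, optionally containing 0.3 mg/mL fatty acid-free BSA, 1 hr at room temperature. Filtration onto GF/C separated bound tracer, and nonspecific binding was measured with candesartan.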

Row | SMILES | activation at 1 µM (human PPARγ) [%] | IC50 (human AT1 receptor) [nM]
1 | CCCc1c(Cc2ccc(-c3ccccc3-c3noc(=O)[nH]3)cc2)c(=O)n([C@H]2CC[C@H](OCC3(C#N)CCC3)CC2)c2ncnn12 [Example 227, 1-[({trans-4-[5-oxo-6-{[2′-(5-oxo-4,5-dihydro-1,2,4-oxadiazol-3-yl)biphenyl-4-yl]methyl}-7-propyl[1,2,4]triazolo[1,5-a]pyrimidin-4(5H)-yl]cyclohexyl}oxy)methyl]cyclobutanecarbonitrile] | 23 | 2.5
2 | CCCc1c(Cc2ccc(-c3ccccc3-c3noc(=O)[nH]3)cc2)c(=O)n([C@H]2CC[C@H](OCC(C)O)CC2)c2ncnn12 (stereo partly drawn) [Example 379, 4-[trans-4-(2-hydroxypropoxy)cyclohexyl]-6-{[2′-(5-oxo-4,5-dihydro-1,2,4-oxadiazol-3-yl)biphenyl-4-yl]methyl}-7-propyl[1,2,4]triazolo[1,5-a]pyrimidin-5(4H)-one] | 34 | 2.2
3 | CCCc1c(Cc2ccc(-c3ccccc3-c3noc(=O)[nH]3)cc2)c(=O)n([C@H]2CC[C@](C)(CO)CC2)c2ncnn12 [Example 189, 4-[trans-4-(hydroxymethyl)-4-methylcyclohexyl]-6-{[2′-(5-oxo-4,5-dihydro-1,2,4-oxadiazol-3-yl)biphenyl-4-yl]methyl}-7-propyl[1,2,4]triazolo[1,5-a]pyrimidin-5(4H)-one] | 35 | 3.1
4 | CCCc1c(Cc2ccc(-c3ccccc3-c3noc(=O)[nH]3)cc2)c(=O)n(C2CCC3(CC2)OC(C)(C)C(C)(C)O3)c2ncnn12 [Example 180, 6-{[2′-(5-oxo-4,5-dihydro-1,2,4-oxadiazol-3-yl)biphenyl-4-yl]methyl}-7-propyl-4-(2,2,3,3-tetramethyl-1,4-dioxaspiro[4.5]dec-8-yl)[1,2,4]triazolo[1,5-a]pyrimidin-5(4H)-one] | 31 | 3.5
5 | CCCc1c(Cc2ccc(-c3ccccc3-c3noc(=O)[nH]3)cc2)c(=O)n(C2CCC3(CC2)O[C@H]2COC[C@H]2O3)c2ncnn12 (some centres unmarked) [Example 293, 6-{[2′-(5-oxo-4,5-dihydro-1,2,4-oxadiazol-3-yl)biphenyl-4-yl]methyl}-7-propyl-4-(tetrahydrospiro[cyclohexane-1,2′-furo[3,4-d][1,3]dioxol]-4-yl)[1,2,4]triazolo[1,5-a]pyrimidin-5(4H)-one] | 28 | 2.3
6 | CCCc1c(Cc2ccc(-c3ccccc3-c3noc(=O)[nH]3)cc2)c(=O)n([C@H]2CC[C@](C)(OCCO)CC2)c2ncnn12 [Example 183, 4-[trans-4-(2-hydroxyethoxy)-4-methylcyclohexyl]-6-{[2′-(5-oxo-4,5-dihydro-1,2,4-oxadiazol-3-yl)biphenyl-4-yl]methyl}-7-propyl[1,2,4]triazolo[1,5-a]pyrimidin-5(4H)-one] | 30 | 2.5

Molecules with a lower IC50 (human AT1 receptor), results first:

Row | activation at 1 µM (human PPARγ) [%] | IC50 (human AT1 receptor) [nM] | SMILES
7 | 31 | 2 | CCCc1c(Cc2ccc(-c3ccccc3-c3noc(=O)[nH]3)cc2)c(=O)n(CC2CC2)c2ncnn12 [Example 21, 4-(cyclopropylmethyl)-6-{[2′-(5-oxo-4,5-dihydro-1,2,4-oxadiazol-3-yl)biphenyl-4-yl]methyl}-7-propyl[1,2,4]triazolo[1,5-a]pyrimidin-5(4H)-one]
8 | 16 | 2 | CCCc1c(Cc2ccc(-c3ccccc3-c3noc(=O)[nH]3)cc2)c(=O)n(C(C)/C(C)=N/OCC)c2nc(C)nn12 (centres unmarked) [Example 114, 4-[(2E)-2-(ethoxyimino)-1-methylpropyl]-2-methyl-6-{[2′-(5-oxo-4,5-dihydro-1,2,4-oxadiazol-3-yl)biphenyl-4-yl]methyl}-7-propyl[1,2,4]triazolo[1,5-a]pyrimidin-5(4H)-one]
9 | 22 | 2 | CCCc1c(Cc2ccc(-c3ccccc3-c3noc(=O)[nH]3)cc2)c(=O)n([C@H]2CC[C@H](OCC(C)(C)O)CC2)c2c(F)cnn12 [Example 442, 3-fluoro-4-[trans-4-(2-hydroxy-2-methylpropoxy)cyclohexyl]-6-{[2′-(5-oxo-4,5-dihydro-1,2,4-oxadiazol-3-yl)biphenyl-4-yl]methyl}-7-propylpyrazolo[1,5-a]pyrimidin-5(4H)-one]
10 | 19 | 1.9 | CCCc1c(Cc2ccc(-c3ccccc3-c3noc(=O)[nH]3)cc2)c(=O)n([C@H]2CC[C@H](OC(CC)C(C)(C)O)CC2)c2ncnn12 (stereo partly drawn) [Example 348, 4-[trans-4-(1-ethyl-2-hydroxy-2-methylpropoxy)cyclohexyl]-6-{[2′-(5-oxo-4,5-dihydro-1,2,4-oxadiazol-3-yl)biphenyl-4-yl]methyl}-7-propyl[1,2,4]triazolo[1,5-a]pyrimidin-5(4H)-one]
11 | 16 | 1.9 | CCCc1c(Cc2ccc(-c3ccccc3-c3noc(=O)[nH]3)cc2)c(=O)n([C@H]2CC[C@H](Oc3ccc(C(C)(C)O)cc3)CC2)c2ncnn12 [Example 280, 4-{trans-4-[4-(1-hydroxy-1-methylethyl)phenoxy]cyclohexyl}-6-{[2′-(5-oxo-4,5-dihydro-1,2,4-oxadiazol-3-yl)biphenyl-4-yl]methyl}-7-propyl[1,2,4]triazolo[1,5-a]pyrimidin-5(4H)-one]
12 | 36 | 1.6 | CCCc1c(Cc2ccc(-c3ccccc3-c3noc(=O)[nH]3)cc2)c(=O)n([C@H]2CC[C@H](OCC3(O)CCC3)CC2)c2ncnn12 [Example 338, 4-{trans-4-[(1-hydroxycyclobutyl)methoxy]cyclohexyl}-6-{[2′-(5-oxo-4,5-dihydro-1,2,4-oxadiazol-3-yl)biphenyl-4-yl]methyl}-7-propyl[1,2,4]triazolo[1,5-a]pyrimidin-5(4H)-one]
13 | 16 | 1.5 | CCCc1c(Cc2ccc(-c3ccccc3-c3noc(=O)[nH]3)cc2)c(=O)n(C2CCC2)c2nc(C)nn12 [Example 83, 4-cyclobutyl-2-methyl-6-{[2′-(5-oxo-4,5-dihydro-1,2,4-oxadiazol-3-yl)biphenyl-4-yl]methyl}-7-propyl[1,2,4]triazolo[1,5-a]pyrimidin-5(4H)-one]
14 | 20 | 1.4 | CCCCc1c(Cc2ccc(-c3ccccc3-c3noc(=O)[nH]3)cc2)c(=O)n(C2CCOC(C)(C)C2)c2nc(C)nn12 (centres unmarked) [Example 137, 7-butyl-4-(2,2-dimethyltetrahydro-2H-pyran-4-yl)-2-methyl-6-{[2′-(5-oxo-4,5-dihydro-1,2,4-oxadiazol-3-yl)biphenyl-4-yl]methyl}[1,2,4]triazolo[1,5-a]pyrimidin-5(4H)-one]
15 | 18 | 1.2 | CCCc1c(Cc2ccc(-c3ccccc3-c3noc(=O)[nH]3)cc2)c(=O)n([C@H]2CC[C@H](OCC(C)(O)CF)CC2)c2nc(C)nn12 (stereo partly drawn) [Example 354, 4-[trans-4-(3-fluoro-2-hydroxy-2-methylpropoxy)cyclohexyl]-2-methyl-6-{[2′-(5-oxo-4,5-dihydro-1,2,4-oxadiazol-3-yl)biphenyl-4-yl]methyl}-7-propyl[1,2,4]triazolo[1,5-a]pyrimidin-5(4H)-one]
16 | 43 | 0.8 | CCCc1c(Cc2ccc(-c3ccccc3-c3noc(=O)[nH]3)cc2F)c(=O)n([C@H]2CC[C@H](O)CC2)c2ncnn12 [Example 167, 6-{[3-fluoro-2′-(5-oxo-4,5-dihydro-1,2,4-oxadiazol-3-yl)biphenyl-4-yl]methyl}-4-(trans-4-hydroxycyclohexyl)-7-propyl[1,2,4]triazolo[1,5-a]pyrimidin-5(4H)-one]
